How the values were obtained:
[1] = Rat oral pharmacokinetics; set-up: species or system Male Sprague Dawley rats; settings: male, Sprague Dawley, in vivo
Method: Rat Oral Pharmacokinetics
Test compounds were formulated in solution formulations (10 w/v % Sulfobutylether-p-cyclodextrin; 90% w/v % 50 mM Citrate Buffer) and administered orally to a group of three Male Sprague Dawley rats. The animals were fasted overnight prior to dose administration and up to four hours after dosing. The test articles were administrated by oral gavage at a dose volume of 5 mL-eq/kg.
(§1) Blood samples were collected at predose and 0.25, 0.5, 1, 2, 4, 6, 8, 12, 24, 48 and 72 hours post dose into K2EDTA tubes and stored on wet ice until processed. Whole blood was processed to plasma by centrifugation (3500 rpm for 10 minutes at 5° C.) within 30 minutes of collection. Plasma samples were placed in Micronic 96 well tubes and stored at −80° C. until transferred. Plasma concentration of the test compounds was determined by LC-MS/MS. Pharmacokinetic parameters were estimated using non-compartment model analysis. The maximum observed concentration (Cmax) and area under the curve from time of dosing to last measured concentration (AUClast) were calculated and reported.

GP2D (KRAS G12D) cells = assay: 2D cell viability assay (CellTiter-Glo); format: cell-based; settings: 96 h; GP2D cells, 4 days, CellTiter-Glo luminescence; read-out: G12D 2D EC50
Procedure, shortened: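 Viability was read by CellTiter-Glo after 4 days at 37 °C of 2D culture of KRAS G12D GP2D cells (1000/well, RPMI, 10% FBS) on pre-spotted threefold compound dilutions. EC50 was fitted with a sigmoidal dose-response model as the point of half-maximal luminescence loss.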

GDP-loaded KRAS G12D = GDP-loaded KRAS G12D (Homo sapiens, UniProt P01116, G12D); assay: KRAS G12D (GDP) biochemical assay, TR-FRET probe displacement; format: binding; settings: 0.5 nM enzyme, 30 min pre-incubation, 2 h incubation, TR-FRET ratio; read-out: G12D IC50
Chain of GDP-loaded KRAS G12D (P01116 1-188 isoform P01116-2 G12D): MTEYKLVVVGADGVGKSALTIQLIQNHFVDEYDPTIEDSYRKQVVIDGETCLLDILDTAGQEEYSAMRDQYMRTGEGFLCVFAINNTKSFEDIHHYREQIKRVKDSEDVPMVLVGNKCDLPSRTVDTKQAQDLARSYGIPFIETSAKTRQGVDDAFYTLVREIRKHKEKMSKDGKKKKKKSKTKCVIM
Procedure, shortened: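 TR-FRET probe displacement: 1:3 DMSO serial dilutions pre-incubated 30 min with GDP-bound KRAS G12D, followed by Eu-streptavidin/probe for 2 h at room temperature (Hepes pH 7.4, NaCl, MgCl2, Tween-20 buffer). IC50 defined as concentration halving TR-FRET ratio, from sigmoidal dose-response fit.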

[2] = Mouse oral cassette pharmacokinetics; format: in vivo, male CD-1 mice; settings: male, CD-1, mouse, in vivo, po, 30 mg/kg
Method: Mouse Oral Cassette Pharmacokinetics
Test compounds (1-3 compounds per cassette) were formulated in solution formulations (10 w/v % Captisol in 50 mM Citrate buffer) and administered orally at 30 mg-eq./kg each compound to a group of four male CD-1 mice. The test articles were administrated by oral gavage at a dose volume of 10 mL-eq/kg.
as §1, with “at” for “at predose and 0.25,”, “3,” for “2, 4,”, “8,” for “8, 12, 24, 48”, “24” for “72”

Row | SMILES | Rat Parent % F ([1]; 7.5 mg/kg) | Rat Parent AUC ([1]; 7.5 mg/kg) | EC50 (GP2D (KRAS G12D) cells) | IC50 (GDP-loaded KRAS G12D) | Mouse Parent AUC [2] | further results
1 | C#Cc1c(F)ccc2cc(N)nc(-c3c(F)c4c5c(nc(OC[C@@]67CCCN6C[C@H](F)C7)nc5c3F)N3C[C@H]5CC[C@@H]([C@H]3CCC4)N5Cc3oc(=O)oc3C)c12 (atropisomer, axis not shown; (aR)) [Example 73, 4-(((1S,4R,11S,15aR)-11-(3-amino-8-ethynyl-7-fluoroisoquinolin-1-yl)-10,12-difluoro-8-(((2R,7aS)-2-fluorotetrahydro-1H-pyrrolizin-7a(5H)-yl)methoxy)-2,3,4,5,13,14,15,15a-octahydro-1H-1,4-epiminoazepino[1′,2′:1,8]azocino[2,3,4-de]quinazolin-16-yl)methyl)-5-methyl-1,3-dioxol-2-one] | 2% | 0.3 µM·h | 820 pM |  |  | 
2 | CCc1c(F)ccc2cc(O)cc(-c3c(F)c4c5c(nc(OC[C@@]67CCCN6C[C@H](F)C7)nc5c3F)N3C[C@H]5CC[C@@H]([C@H]3CCC4)N5Cc3oc(=O)oc3C)c12 (atropisomer, axis not shown; (aR)) [Example 77, 4-(((1S,4R,11R,15aR)-11-(8-ethyl-7-fluoro-3-hydroxynaphthalen-1-yl)-10,12-difluoro-8-(((2R,7aS)-2-fluorotetrahydro-1H-pyrrolizin-7a(5H)-yl)methoxy)-2,3,4,5,13,14,15,15a-octahydro-1H-1,4-epiminoazepino[1′,2′:1,8]azocino[2,3,4-de]quinazolin-16-yl)methyl)-5-methyl-1,3-dioxol-2-one] |  | 0.43 µM·h | 260 pM |  |  | 
3 | C#Cc1c(F)ccc2cc(N)nc(-c3c(F)c4c5c(nc(OC[C@@]67CCCN6C[C@H](F)C7)nc5c3F)N3C[C@H]5CC[C@@H]([C@H]3CCC4)N5Cc3oc(=O)oc3CC)c12 (atropisomer, axis not shown; (aR)) [Example 79, 4-(((1S,4R,11S,15aR)-11-(3-amino-8-ethynyl-7-fluoroisoquinolin-1-yl)-10,12-difluoro-8-(((2R,7aS)-2-fluorotetrahydro-1H-pyrrolizin-7a(5H)-yl)methoxy)-2,3,4,5,13,14,15,15a-octahydro-1H-1,4-epiminoazepino[1′,2′:1,8]azocino[2,3,4-de]quinazolin-16-yl)methyl)-5-ethyl-1,3-dioxol-2-one] |  | 0.22 µM·h | 1200 pM |  |  | 
4 | C#Cc1c(F)ccc2cc(O)cc(-c3nc4c5c(nc(OC[C@@]67CCCN6C[C@H](F)C7)nc5c3F)N3C[C@H]5CC[C@@H]([C@H]3CC[C@H]4C)N5Cc3oc(=O)oc3CCCCCC)c12 [Example 16, 4-(((4R,6aR,7S,10R)-2-(8-ethynyl-7-fluoro-3-hydroxynaphthalen-1-yl)-1-fluoro-13-(((2R,7aS)-2-fluorotetrahydro-1H-pyrrolizin-7a(5H)-yl)methoxy)-4-methyl-5,6,6a,7,8,9,10,11-octahydro-4H-3,11a,12,14,15-pentaaza-7,10-methanocyclohepta[4,5]cycloocta[1,2,3-de]naphthalen-15-yl)methyl)-5-hexyl-1,3-dioxol-2-one] |  |  | 160 pM | 40000 pM | 0.95 µM·h | 
5 | C#Cc1c(F)ccc2cc(O)cc(-c3nc4c5c(nc(OC[C@@]67CCCN6C[C@H](F)C7)nc5c3F)N3C[C@H]5CC[C@@H]([C@H]3CC[C@H]4C)N5Cc3oc(=O)oc3C3CCCCC3)c12 [Example 17, 4-cyclohexyl-5-(((4R,6aR,7S,10R)-2-(8-ethynyl-7-fluoro-3-hydroxynaphthalen-1-yl)-1-fluoro-13-(((2R,7aS)-2-fluorotetrahydro-1H-pyrrolizin-7a(5H)-yl)methoxy)-4-methyl-5,6,6a,7,8,9,10,11-octahydro-4H-3,11a,12,14,15-pentaaza-7,10-methanocyclohepta[4,5]cycloocta[1,2,3-de]naphthalen-15-yl)methyl)-1,3-dioxol-2-one] |  |  | 200 pM | 48000 pM | 0.161 µM·h | 
6 | C#Cc1c(F)ccc2cccc(-c3nc4c5c(nc(OC[C@@]67CCCN6C[C@H](F)C7)nc5c3F)N3C[C@H]5CC[C@@H]([C@H]3CCC4)N5C(=O)OC(C)OC(=O)CCC)c12 (stereo partly drawn) [Example 25, 1-(butyryloxy)ethyl (6aR,7S,10R)-2-(8-ethynyl-7-fluoronaphthalen-1-yl)-1-fluoro-13-(((2R,7aS)-2-fluorotetrahydro-1H-pyrrolizin-7a(5H)-yl)methoxy)-5,6,6a,7,8,9,10,11-octahydro-4H-3,11a,12,14,15-pentaaza-7,10-methanocyclohepta[4,5]cycloocta[1,2,3-de]naphthalene-15-carboxylate] |  |  |  |  |  | Rat Parent % F ([1]; 5 mg/kg): 1%; Rat Parent AUC ([1]; 5 mg/kg): 0.037 µM·h
7 | C#Cc1c(F)ccc2cc(N)cc(-c3nc4c5c(nc(OC[C@@]67CCCN6C[C@H](F)C7)nc5c3F)N3C[C@H]5CC[C@@H]([C@H]3CCC4)N5Cc3oc(=O)oc3CCC)c12 [Example 35, 4-(((6aR,7S,10R)-2-(3-amino-8-ethynyl-7-fluoronaphthalen-1-yl)-1-fluoro-13-(((2R,7aS)-2-fluorotetrahydro-1H-pyrrolizin-7a(5H)-yl)methoxy)-5,6,6a,7,8,9,10,11-octahydro-4H-3,11a,12,14,15-pentaaza-7,10-methanocyclohepta[4,5]cycloocta[1,2,3-de]naphthalen-15-yl)methyl)-5-propyl-1,3-dioxol-2-one] |  |  | 460 pM |  |  | Rat Parent % F ([1]; 15 mg/kg): 5%; Rat Parent AUC ([1]; 15 mg/kg): 0.27 µM·h
8 | C#Cc1c(F)ccc2cc(N)cc(-c3nc4c5c(nc(OC[C@@]67CCCN6C[C@H](F)C7)nc5c3F)N3C[C@H]5CC[C@@H]([C@H]3CCC4)N5Cc3oc(=O)oc3CCCCCC)c12 [Example 36, 4-(((6aR,7S,10R)-2-(3-amino-8-ethynyl-7-fluoronaphthalen-1-yl)-1-fluoro-13-(((2R,7aS)-2-fluorotetrahydro-1H-pyrrolizin-7a(5H)-yl)methoxy)-5,6,6a,7,8,9,10,11-octahydro-4H-3,11a,12,14,15-pentaaza-7,10-methanocyclohepta[4,5]cycloocta[1,2,3-de]naphthalen-15-yl)methyl)-5-hexyl-1,3-dioxol-2-one] | 1.9% | 0.052 µM·h | 490 pM |  |  | 
9 | C#Cc1c(F)ccc2cc(O)cc(-c3nc4c5c(nc(OC[C@@]67CCCN6C[C@H](F)C7)nc5c3F)N3C[C@H]5CC[C@@H]([C@@H]3[C@H]3CCC[C@@H]43)N5Cc3oc(=O)oc3C)c12 [Example 42, 4-(((3aS,3bS,4S,7R,14bR)-13-(8-ethynyl-7-fluoro-3-hydroxynaphthalen-1-yl)-12-fluoro-10-(((2R,7aS)-2-fluorotetrahydro-1H-pyrrolizin-7a(5H)-yl)methoxy)-2,3,3a,3b,4,5,6,7,8,14b-decahydro-1H-8a,9,11,14,15-pentaaza-4,7-methanocyclopenta[d]naphtho[1,8-ab]heptalen-15-yl)methyl)-5-methyl-1,3-dioxol-2-one] | 0.3% | 0.2 µM·h | 1700 pM |  |  | 
10 | C#Cc1c(F)ccc2cc(N)cc(-c3nc4c5c(nc(OC[C@@]67CCCN6C[C@H](F)C7)nc5c3F)N3C[C@H]5CC[C@H](N5)[C@H]3CCC4)c12 [Example 69-P, 5-ethynyl-6-fluoro-4-((6aR,7S,10R)-1-fluoro-13-(((2R,7aS)-2-fluorotetrahydro-1H-pyrrolizin-7a(5H)-yl)methoxy)-5,6,6a,7,8,9,10,11-octahydro-4H-3,11a,12,14,15-pentaaza-7,10-methanocyclohepta[4,5]cycloocta[1,2,3-de]naphthalen-2-yl)naphthalen-2-amine] |  |  | 500 pM | 70 pM | 0.5 µM·h | 

Source: patent US12448400B2, “KRAS G12D modulating compounds” (priority 2023, dated 2025)
